Test results reported in patent USRE38520E1, “Erythromycin derivatives, method for preparing same, and use thereof as drugs” (Aventis Pharma S.A., priority 1996, dated 2004).

Legend:
Assay in all cases: Method of dilutions in liquid medium (M.I.C.)
Type in all cases: cell-based
Conditions in all cases: incubation twenty-four hours at 37° C.
[1] = test system: Staphylococtus aureus 011UC4
Experimental: (§1) Method of Dilutions in Liquid Medium A series of tubes were prepared into which the same quantity of sterile nutritive medium is distributed. Increasing quantities of the product to be studied are distributed into each tube, then each tube is seeded with a bacterial strain. After incubation for twenty-four hours in a heating chamber at 37° C., the growth inhibition is evaluated by transillumination, which permits the minimal inhibitory concentrations (M.I.C.) to be determined, expressed in micrograms/cm^3.

[2] = test system: Streptoccocus agalactae group B 02B1UTI
Experimental: as §1

[3] = test system: Streptoccocus agalactae group B 02B1811
Experimental: as §1

[4] = test system: Streptoccocus pneumoniae 031515
Experimental: as §1

[5] = test system: Streptoccocus aritis 02mmCH1
Experimental: as §1

[6] = test system: Streptoccocus pyogenes group A 02A1UCI
Experimental: as §1

[7] = test system: Streptoccocus sp. group G 02GRGR5
Experimental: as §1

[8] = test system: Streptoccocus aritis 02mmGR01
Experimental: as §1

[9] = test system: Streptoccocus faecalis group C 02D2UCI
Experimental: as §1

[10] = test system: Streptoccocus faecium group D 02D2UCI
Experimental: as §1

Row | Compound | minimal inhibitory concentrations (M.I.C.) [1] [micrograms/cm^3] | minimal inhibitory concentrations (M.I.C.) [2] | minimal inhibitory concentrations (M.I.C.) [3] [micrograms/cm^3] | minimal inhibitory concentrations (M.I.C.) [4] [micrograms/cm^3] | minimal inhibitory concentrations (M.I.C.) [5] [micrograms/cm^3] | minimal inhibitory concentrations (M.I.C.) [6] [micrograms/cm^3] | minimal inhibitory concentrations (M.I.C.) [7] [micrograms/cm^3] | minimal inhibitory concentrations (M.I.C.) [8] [micrograms/cm^3] | minimal inhibitory concentrations (M.I.C.) [9] [micrograms/cm^3] | minimal inhibitory concentrations (M.I.C.) [10] [micrograms/cm^3]
1 | 11,12-dideoxy-3-de((2,6-dideoxy-3-C-methyl-3-O-methyl-alpha-L-ribohexopyranosyl)oxy)-3-hydroxy-6-O-methyl-12,11-(oxycarbonyl(2-(3-(4-quinolinyl)propyl)hydrazono)) erythromycin [Ex. 1] | 0.3 | ≦0.02 micrograms/cm^3 | 0.6 | 0.6 | 0.3 | 0.04 | 0.04 | 0.15 | 0.04 | 0.04
2 | CC[C@H]1OC(=O)[C@H](C)[C@@H](O)[C@H](C)[C@@H](O[C@@H]2O[C@H](C)C[C@H](N(C)C)[C@H]2O)[C@](C)(OC)C[C@@H](C)C(=O)[C@H](C)[C@H]2N(CCCCn3cnc(-c4cccnc4)c3)C(=O)O[C@]12C [Ex. 2, 11,12-dideoxy-3-d((2,6-dideoxy-3-C-methyl-3-O-methyl-alpha-L-ribohexopyranosyl)oxy)-3-hydroxy-6-O-methyl-12,11-(oxycarbonyl((4-(4-(3-pyridinyl)-1H-imidazol-1-yl)-butyl)imino))-erythromycin] |  | 0.04 micrograms/cm^3 | 1.2 | 1 | 0.34 | 0.15 | 0.15 | 0.6 | 0.3 | 0.3
